Laboratory results from the NIST ThermoML archive (doi:10.1021/je501051p).

Test: mn = molality of the nth substance listed, in mol/kg
Settings: 303 K, Ring tensiometer

CCCCCCCCc1ccc(C(=O)[O-])cn1.[Na+] [sodium 6-octylnicotinate] + O
Settings | surface tension liquid-gas [mN/m]
m1 = 5e-05 | 69
m1 = 7.145e-05 | 68.3
m1 = 0.0001 | 67
m1 = 0.0001545 | 66
m1 = 0.0002512 | 64.9
m1 = 0.0003972 | 63.6
m1 = 0.0006397 | 61.8
m1 = 0.001 | 60
m1 = 0.0015 | 58.4
m1 = 0.002 | 57.4
m1 = 0.0025 | 57.4
m1 = 0.002999 | 57.4
m1 = 0.003999 | 57.4
m1 = 0.005 | 56
m1 = 0.006427 | 54.22
m1 = 0.009016 | 52.4
m1 = 0.01 | 49.5
m1 = 0.013 | 48
m1 = 0.015 | 47.5
m1 = 0.01702 | 45
m1 = 0.02 | 44
m1 = 0.025 | 44
m1 = 0.02999 | 44
m1 = 0.03499 | 44

CCCCCCCCCCc1ccc(C(=O)NCC(=O)[O-])cn1.[Na+] [sodium (6-decylnicotinoyl)glycinate] + O
Settings | surface tension liquid-gas [mN/m]
m1 = 1.995e-05 | 64.7
m1 = 2.818e-05 | 61.8
m1 = 4.786e-05 | 59.4
m1 = 5.888e-05 | 58.1
m1 = 8.128e-05 | 56.6
m1 = 0.0001148 | 55.2
m1 = 0.0001514 | 53.2
m1 = 0.0002512 | 52.5
m1 = 0.000302 | 50
m1 = 0.0005012 | 47
m1 = 0.0008128 | 46
m1 = 0.001 | 45
m1 = 0.001514 | 44
m1 = 0.002042 | 43
m1 = 0.002291 | 42
m1 = 0.002512 | 40.5
m1 = 0.00302 | 40.5
m1 = 0.003548 | 40.5
m1 = 0.004074 | 40.5
m1 = 0.005012 | 40.5
m1 = 0.006026 | 40.5

CCCCCCCCCCc1ccc(C(=O)[O-])cn1.[Na+] [sodium 6-decylnicotinate] + O
Settings | surface tension liquid-gas [mN/m]
m1 = 1e-05 | 65
m1 = 1.479e-05 | 63.7
m1 = 2.512e-05 | 62.02
m1 = 4.074e-05 | 59.6
m1 = 5.495e-05 | 58.45
m1 = 7.586e-05 | 56.75
m1 = 0.0001 | 55.75
m1 = 0.000123 | 54.56
m1 = 0.0001514 | 53.1
m1 = 0.000182 | 51.77
m1 = 0.0002042 | 50.5
m1 = 0.0002512 | 49.5
m1 = 0.000302 | 48.5
m1 = 0.0003548 | 47
m1 = 0.0004074 | 47
m1 = 0.0005012 | 47
m1 = 0.0006166 | 47
m1 = 0.0008128 | 46.5
m1 = 0.001 | 46
m1 = 0.001514 | 45.6
m1 = 0.002042 | 45
m1 = 0.002291 | 44.5
m1 = 0.002512 | 44
m1 = 0.002754 | 43.5
m1 = 0.00302 | 42.5
m1 = 0.003311 | 42.5
m1 = 0.003548 | 42.5
m1 = 0.004074 | 42.5
m1 = 0.005012 | 42.5
m1 = 0.006026 | 42.5
